Data published in patent US9446039B2, “Aminoheteroaryl compounds as MTH1 inhibitors” (CEMM—FORSCHUNGSZENTRUM FÜR MOLEKULARE MEDIZIN GMBH, priority 2012, dated 2016).

Legend:
Assay type in all cases: binding
[1] = target: SW480 colon carcinoma cells lysate proteins (Homo sapiens, UniProt P63313); details: PreyGene TMSB10
[2] = target: SW480 colon carcinoma cells lysate proteins (Homo sapiens, UniProt Q9NTK5); details: PreyGene OLA1; SW480 cells
[3] = target: T1, SW480 colon carcinoma cells lysate proteins (Homo sapiens, UniProt P12081); details: PreyGene HARS
T1 sequence (P12081 1-509): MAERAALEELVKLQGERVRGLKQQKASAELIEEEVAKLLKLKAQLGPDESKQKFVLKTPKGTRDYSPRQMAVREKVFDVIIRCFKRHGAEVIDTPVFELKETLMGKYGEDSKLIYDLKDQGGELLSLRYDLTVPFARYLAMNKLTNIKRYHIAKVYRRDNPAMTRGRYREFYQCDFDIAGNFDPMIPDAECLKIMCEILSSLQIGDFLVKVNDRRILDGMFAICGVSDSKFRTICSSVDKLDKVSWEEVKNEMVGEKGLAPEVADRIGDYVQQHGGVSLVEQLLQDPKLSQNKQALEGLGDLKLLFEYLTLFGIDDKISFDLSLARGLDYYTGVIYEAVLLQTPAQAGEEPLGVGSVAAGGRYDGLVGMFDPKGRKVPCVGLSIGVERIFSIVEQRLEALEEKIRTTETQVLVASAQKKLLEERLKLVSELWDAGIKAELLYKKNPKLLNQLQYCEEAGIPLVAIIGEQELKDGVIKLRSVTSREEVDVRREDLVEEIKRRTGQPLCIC

[4] = target: T2, SW480 colon carcinoma cells lysate proteins (Homo sapiens, UniProt P00558); details: PreyGene PGK1
T2 sequence (P00558 1-417): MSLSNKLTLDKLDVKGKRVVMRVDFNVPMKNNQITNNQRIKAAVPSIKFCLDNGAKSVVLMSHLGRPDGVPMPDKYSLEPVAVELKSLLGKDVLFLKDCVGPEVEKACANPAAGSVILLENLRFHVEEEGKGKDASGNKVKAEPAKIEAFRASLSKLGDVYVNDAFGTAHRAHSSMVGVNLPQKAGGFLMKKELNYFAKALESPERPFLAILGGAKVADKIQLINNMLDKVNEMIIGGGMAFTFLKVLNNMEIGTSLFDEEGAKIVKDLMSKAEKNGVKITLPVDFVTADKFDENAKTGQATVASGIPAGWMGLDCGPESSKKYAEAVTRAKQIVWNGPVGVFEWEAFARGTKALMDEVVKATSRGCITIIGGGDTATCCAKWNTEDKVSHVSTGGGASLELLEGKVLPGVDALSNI

[5] = target: SW480 colon carcinoma cells lysate proteins (Homo sapiens, UniProt P31939); details: PreyGene ATIC
Sequence of SW480 colon carcinoma cells lysate proteins (Homo sapiens, UniProt P31939) (P31939 whole entry): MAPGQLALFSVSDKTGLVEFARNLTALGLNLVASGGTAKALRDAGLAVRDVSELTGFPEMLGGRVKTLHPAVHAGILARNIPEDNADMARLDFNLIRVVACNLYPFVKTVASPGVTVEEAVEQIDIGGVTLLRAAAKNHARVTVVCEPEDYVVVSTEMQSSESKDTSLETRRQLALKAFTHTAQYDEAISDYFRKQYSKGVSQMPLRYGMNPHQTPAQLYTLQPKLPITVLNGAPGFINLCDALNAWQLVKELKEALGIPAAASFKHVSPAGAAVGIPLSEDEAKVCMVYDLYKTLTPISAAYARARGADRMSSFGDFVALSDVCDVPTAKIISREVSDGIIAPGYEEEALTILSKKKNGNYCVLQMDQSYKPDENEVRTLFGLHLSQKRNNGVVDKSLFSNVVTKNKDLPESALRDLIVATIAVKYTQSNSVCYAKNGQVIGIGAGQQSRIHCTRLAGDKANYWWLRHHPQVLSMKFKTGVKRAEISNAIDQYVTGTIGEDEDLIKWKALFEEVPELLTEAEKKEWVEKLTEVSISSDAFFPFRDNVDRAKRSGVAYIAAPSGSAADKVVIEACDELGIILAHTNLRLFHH

[6] = target: T3, SW480 colon carcinoma cells lysate proteins (Homo sapiens, UniProt Q5XKE5); details: PreyGene KRT79; SW480 cells
T3 sequence (Q5XKE5 1-535): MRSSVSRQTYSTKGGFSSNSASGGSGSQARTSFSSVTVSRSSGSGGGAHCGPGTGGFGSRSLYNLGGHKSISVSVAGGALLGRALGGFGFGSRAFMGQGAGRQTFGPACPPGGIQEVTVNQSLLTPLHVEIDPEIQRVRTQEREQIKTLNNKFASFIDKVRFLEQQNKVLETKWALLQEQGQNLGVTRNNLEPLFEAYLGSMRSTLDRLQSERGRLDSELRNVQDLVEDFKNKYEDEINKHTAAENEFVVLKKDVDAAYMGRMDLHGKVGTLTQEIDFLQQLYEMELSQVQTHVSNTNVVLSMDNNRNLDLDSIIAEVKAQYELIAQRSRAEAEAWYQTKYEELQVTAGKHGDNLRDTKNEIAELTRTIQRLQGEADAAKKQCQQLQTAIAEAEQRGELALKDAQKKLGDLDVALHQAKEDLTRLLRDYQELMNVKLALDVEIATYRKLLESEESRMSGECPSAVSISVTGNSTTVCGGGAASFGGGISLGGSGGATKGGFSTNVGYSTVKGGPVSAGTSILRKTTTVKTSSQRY

[7] = target: T4, SW480 colon carcinoma cells lysate proteins (Homo sapiens, UniProt Q14847); details: PreyGene LASP1; SW480 cells
T4 sequence (Q14847 1-261): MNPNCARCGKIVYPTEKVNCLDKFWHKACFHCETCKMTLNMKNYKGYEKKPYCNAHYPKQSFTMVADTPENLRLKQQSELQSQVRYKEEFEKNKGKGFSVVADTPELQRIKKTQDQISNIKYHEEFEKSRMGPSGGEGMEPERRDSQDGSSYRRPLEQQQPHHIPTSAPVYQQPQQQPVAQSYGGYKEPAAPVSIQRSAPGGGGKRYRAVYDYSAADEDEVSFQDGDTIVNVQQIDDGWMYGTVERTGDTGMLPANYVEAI

Sequence of SW480 colon carcinoma cells lysate proteins (Homo sapiens, UniProt P63313) (P63313 whole entry): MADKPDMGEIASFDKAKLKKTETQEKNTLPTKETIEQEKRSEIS
Sequence of SW480 colon carcinoma cells lysate proteins (Homo sapiens, UniProt Q9NTK5) (Q9NTK5 whole entry): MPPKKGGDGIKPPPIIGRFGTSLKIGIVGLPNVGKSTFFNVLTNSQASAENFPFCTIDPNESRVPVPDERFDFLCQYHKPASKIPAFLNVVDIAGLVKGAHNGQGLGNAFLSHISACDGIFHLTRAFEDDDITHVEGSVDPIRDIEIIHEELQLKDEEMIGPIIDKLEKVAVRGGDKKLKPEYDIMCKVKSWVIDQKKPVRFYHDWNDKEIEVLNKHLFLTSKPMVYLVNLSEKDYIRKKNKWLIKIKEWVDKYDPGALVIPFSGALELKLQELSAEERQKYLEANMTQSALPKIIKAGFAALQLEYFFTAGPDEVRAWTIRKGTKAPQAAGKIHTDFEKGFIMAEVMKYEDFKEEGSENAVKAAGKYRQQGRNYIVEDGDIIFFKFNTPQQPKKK

C[C@H](Oc1cc(-c2cnn(C3CCNCC3)c2)cnc1N)c1c(Cl)ccc(F)c1Cl [(5)-crizotinib]
0.3518: AvgP [1]
26: Sum (SC.Exp.) [4]
12: SC.Exp. 1-2 [4]
1: SC.Exp. 1-1 [2] | SC.Exp. 1-2 [2] | SC.Exp. 1-2 [6] | SC.Exp. Sum [6] | SC.Exp. 1-2 [7] | SC.Exp. Sum [7]
3: SC.Exp. 1-1 [3] | SC.Exp. 1-2 [3] | SC.Exp. 1-1 [5]
4: Sum (SC.Exp.) [1] | SC.Exp. 1-2 [5]
0: SC.Exp. 2-1 [1] | SC.Exp. 2-2 [1] | AvgP [2] | SC.Exp. 2-1 [2] | SC.Exp. 2-2 [2] | SC.Exp. 2-1 [3] | SC.Exp. 2-2 [3] | SC.Exp. 2-1 [4] | SC.Exp. 2-2 [4] | SC.Exp. 2-1 [5] | SC.Exp. 2-2 [5] | AvgP [6] | SC.Exp. 1-1 [6] | SC.Exp. 2-1 [6] | SC.Exp. 2-2 [6] | AvgP [7] | SC.Exp. 1-1 [7] | SC.Exp. 2-1 [7] | SC.Exp. 2-2 [7]
0.2466: AvgP [4]
0.4369: AvgP [5]
2: SC.Exp. 1-1 [1] | SC.Exp. 1-2 [1] | SC.Exp. Sum [2]
0.3676: AvgP [3]
14: SC.Exp. 1-1 [4]
6: Sum (SC.Exp.) [3]
7: Sum (SC.Exp.) [5]
